Laboratory results from US8293790B2, “Pharmaceutical compositions comprising DGLA and benzoyl peroxide and methods of use thereof” (Dignity Sciences Limited, priority 2011, dated 2012).

System: P. acnes
Assay: Agar dilution method: growth of P. acnes and MIC, compounds tested singly
Assay type: cell-based, Propionibacterium acnes
Design: key to Growth Index (+++, ++, +, −) Plate 1 / Growth Index (+++, ++, +, −) Plate 2 / Growth Index (+++, ++, +, −) Plate 3 / Growth Index (+++, ++, +, −) Avg: +++: confluent growth (comparable to control); ++: less confluent growth; +: marked reduction in growth to multiple tiny, single colonies; −: no growth present
Conditions: for MIC: Cutibacterium acnes, compound alone, MIC = concentration with marked reduction (+) of growth, read-out: MIC (mg/mL) as per P-11-0007 or P-11-0008 Addendum A
Procedure: Several compounds including fatty acids such as DGLA, 15-OHEPA, and 15-HETrE were tested to determine their capacity to inhibit the growth of P. acnes. In an exemplary method, an agar dilution method was used to determine the minimum inhibitory concentration (MIC) of each tested compound. Briefly, the agar dilution method involved preparing a series of concentrations of each compound (e.g., nicotinamide, benzoyl peroxide, adapalene, metronidazole, DGLA, 15-OHEPA, and 15-HETrE) in a Reinforced Clostridial Agar (RCA) media that facilitates growth of P. acnes under anaerobic conditions. An inoculum of P. acnes was prepared by incubation of P. acnes for approximately seven days at 35-37° C. to achieve a ≧1.0 OD600 inoculum of P. acnes in RCM broth. A portion of this inoculum was then added to the surface of each plate as a 10 μL spot and incubated at 35-37° C. for 72 hours or more. Growth of P. acnes was then observed and compared to control plates in which no compound has been added, and positive inhibition plates prepared with erythromycin. […] The growth of P. acnes in the presence of nicotinamide, benzoyl peroxide, adapalene, metronidazole, DGLA, 15-OHEPA, and 15-HETrE was determined with varying concentrations of the compound (see, Table 2). Next, the MIC was determined as the concentration at which a marked reduction (+) occurs in the appearance of growth on the test plate (as per Clinical and Laboratory Standards Institute M11-A7).

[1] = compound at 0.00001 mg/mL in agar
[2] = compound at 0.0001 mg/mL in agar
[3] = compound at 0.001 mg/mL in agar

CC[C@H]1OC(=O)[C@H](C)[C@@H](O[C@H]2C[C@@](C)(OC)[C@@H](O)[C@H](C)O2)[C@H](C)[C@@H](O[C@@H]2O[C@H](C)C[C@H](N(C)C)[C@H]2O)[C@](C)(O)C[C@@H](C)C(=O)[C@H](C)[C@@H](O)[C@]1(C)O [Erythromycin]
0.01 to 0.05 µg/mL: MIC

CCCCCC(O)/C=C/C=C\C/C=C\CCCCCCC(=O)O (stereo not shown) [15-HETrE, 15-Hydroxy-eicosa-8(Z),11(Z),13(E)-trienoic acid]
no effect on its own: effect on growth of P. acnes on its own (0.01 mg/ml)
+++: Growth Index (+++, ++, +, −) Avg [1] | Growth Index (+++, ++, +, −) Plate 1 [1] | Growth Index (+++, ++, +, −) Plate 2 [1] | Growth Index (+++, ++, +, −) Plate 3 [1] | Growth Index (+++, ++, +, −) Avg [2] | Growth Index (+++, ++, +, −) Plate 1 [2] | Growth Index (+++, ++, +, −) Plate 2 [2] | Growth Index (+++, ++, +, −) Plate 3 [2] | Growth Index (+++, ++, +, −) Avg [3] | Growth Index (+++, ++, +, −) Plate 1 [3] | Growth Index (+++, ++, +, −) Plate 2 [3] | Growth Index (+++, ++, +, −) Plate 3 [3] | Growth Index (+++, ++, +, −) Plate 2 (compound at 0.01 mg/mL in agar)
++: Growth Index (+++, ++, +, −) Avg (compound at 0.01 mg/mL in agar) | Growth Index (+++, ++, +, −) Plate 1 (compound at 0.01 mg/mL in agar) | Growth Index (+++, ++, +, −) Plate 3 (compound at 0.01 mg/mL in agar)

CCCCC/C=C\C/C=C\C/C=C\CCCCCCC(=O)O [DGLA, cis-8,11,14-eicosatrienoic acid]
+: Growth Index (+++, ++, +, −) Avg (compound at 0.6 mg/mL in agar) | Growth Index (+++, ++, +, −) Avg (compound at 0.8 mg/mL in agar) | Growth Index (+++, ++, +, −) Plate 2 (compound at 0.8 mg/mL in agar) | Growth Index (+++, ++, +, −) Plate 3 (compound at 0.8 mg/mL in agar) | Growth Index (+++, ++, +, −) Avg (compound at 1.0 mg/mL in agar) | Growth Index (+++, ++, +, −) Plate 1 (compound at 1.0 mg/mL in agar) | Growth Index (+++, ++, +, −) Plate 2 (compound at 1.0 mg/mL in agar) | Growth Index (+++, ++, +, −) Plate 3 (compound at 1.0 mg/mL in agar)
−: Growth Index (+++, ++, +, −) Plate 2 (compound at 0.6 mg/mL in agar)
no effect on its own: effect on growth of P. acnes on its own (0.4 mg/ml)
400 to 600 µg/mL: MIC
++: Growth Index (+++, ++, +, −) Plate 1 (compound at 0.6 mg/mL in agar) | Growth Index (+++, ++, +, −) Plate 3 (compound at 0.6 mg/mL in agar) | Growth Index (+++, ++, +, −) Plate 1 (compound at 0.8 mg/mL in agar)
+++: Growth Index (+++, ++, +, −) Avg (compound at 0.2 mg/mL in agar) | Growth Index (+++, ++, +, −) Plate 1 (compound at 0.2 mg/mL in agar) | Growth Index (+++, ++, +, −) Plate 2 (compound at 0.2 mg/mL in agar) | Growth Index (+++, ++, +, −) Plate 3 (compound at 0.2 mg/mL in agar) | Growth Index (+++, ++, +, −) Avg (compound at 0.4 mg/mL in agar) | Growth Index (+++, ++, +, −) Plate 1 (compound at 0.4 mg/mL in agar) | Growth Index (+++, ++, +, −) Plate 2 (compound at 0.4 mg/mL in agar) | Growth Index (+++, ++, +, −) Plate 3 (compound at 0.4 mg/mL in agar)
